Usually pEC50 stands for −log10 of the EC50, conventionally taken in molar units.

Results on 19 compounds are retold here after patent publication US8574563B2 (Bristol-Myers Squibb Company, priority 2006, dated 2013).

pEC50: −log10 of the molar value.

The subject of one test is HCV 1b-377-neo replicon cells. Kind of test: HCV replicon assay, HCV 1b-377-neo replicon cells (1b FRET). The format is cell-based, Hepatitis C virus genotype 1b. The note with it: HCV 1b-377-neo replicon cells; HCV 1b genotype; read-out: EC50 range against HCV 1b (Table 2, Range). The essentials: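 FRET-based replicon assay in HCV 1b-377-neo cells, including a comparison line carrying the NS5A Y2065H mutation that confers resistance to a reference compound.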
On the technique in general: A replicon is a self-replicating genome or part of one, used to study replication in cells.
`COC(=O)N[C@@H](C(=O)N1CCC[C@H]1c1ncc(-c2ccc(-c3ccc(-c4cnc([C@@H]5CCCN5C(=O)[C@@H]5CCCN5C)[nH]4)cc3)cc2)[nH]1)c1ccccc1` [Example 52, methyl ((1R)-2-((2S)-2-(5-(4′-(2-((2S)-1-(1-methyl-L-propyl)-2-pyrrolidinyl)-1H-imidazol-5-yl)-4-biphenylyl)-1H-imidazol-2-yl)-1-pyrrolidinyl)-2-oxo-1-phenylethyl)carbamate]: the pEC50 was 9.00 to 12.00.

The same test, now with this note: Hepatitis C virus, HCV 1b-377-neo replicon cells; HCV 1b genotype; read-out: EC50 range against HCV 1b (Table 2, Range).
As for `COC(=O)N[C@H]1CC[C@@H](C(=O)N2CCC[C@H]2c2ncc(-c3ccc(-c4ccc(-c5cnc([C@@H]6CCCN6C(=O)[C@@H](NC(=O)OC)C(C)C)[nH]5)cc4)cc3)[nH]2)C1` [cj-61, methyl ((1S)-1-(((2S)-2-(5-(4′-(2-((2S)-1-(((1R,3S)-3-((methoxycarbonyl)amino)cyclopentyl)carbonyl)-2-pyrrolidinyl)-1H-imidazol-5-yl)-4-biphenylyl)-1H-imidazol-2-yl)-1-pyrrolidinyl)carbonyl)-2-methylpropyl)carbamate], the pEC50 is 9.00 to 12.00. For the compound `CN1CCC[C@H]1C(=O)N[C@@H](C(=O)N1CCC[C@H]1c1ncc(-c2ccc(-c3ccc(-c4cnc([C@@H]5CCCN5C(=O)[C@H](NC(=O)[C@@H]5CCCN5C)c5ccccc5)[nH]4)cc3)cc2)[nH]1)c1ccccc1` [Example 25-3, (2S,2′S)-N,N′-(4,4′-biphenyldiylbis(1H-imidazole-5,2-diyl(2S)-2,1-pyrrolidinediyl((1R)-2-oxo-1-phenyl-2,1-ethanediyl)))bis(1-methyl-2-pyrrolidinecarboxamide)], the pEC50 is 9.00 to 12.00.

Take `CN(C)[C@@H](C(=O)N1CCC[C@H]1c1ncc(-c2ccc(-c3ccc(-c4cnc([C@@H]5CCCN5C(=O)C5CN(C(=O)OC(C)(C)C)C5)[nH]4)cc3)cc2)[nH]1)c1ccccc1` [Example 94-25, tert-butyl 3-(((2S)-2-(5-(4′-(2-((2S)-1-((2R)-2-(dimethylamino)-2-phenylacetyl)-2-pyrrolidinyl)-1H-imidazol-5-yl)-4-biphenylyl)-1H-imidazol-2-yl)-1-pyrrolidinyl)carbonyl)-1-azetidinecarboxylate]: the pEC50 was 9.00 to 12.00. As for `CCN(CC)[C@@H](C(=O)N1CCC[C@H]1c1ncc(-c2ccc(-c3ccc(-c4cnc([C@@H]5CCCN5C(=O)[C@H](C)NC(=O)OC)[nH]4)c(F)c3)cc2)[nH]1)c1ccccc1` [Example D36, methyl ((1S)-2-((2S)-2-(5-(4′-(2-((2S)-1-((2R)-2-(diethylamino)-2-phenylacetyl)-2-pyrrolidinyl)-1H-imidazol-5-yl)-3-fluoro-4-biphenylyl)-1H-imidazol-2-yl)-1-pyrrolidinyl)-1-methyl-2-oxoethyl)carbamate], the pEC50 is 9.00 to 12.00. Regarding `CCCN(CCC)[C@H](C)C(=O)N1CCC[C@H]1c1ncc(-c2ccc(-c3ccc(-c4cnc([C@@H]5CCCN5C(=O)[C@@H](NC(=O)OC)C(C)C)[nH]4)cc3)cc2)[nH]1` [Example M83, methyl ((1S)-1-(((2S)-2-(5-(4′-(2-((2S)-1-(N,N-dipropyl-D-alanyl)-2-pyrrolidinyl)-1H-imidazol-5-yl)-4-biphenylyl)-1H-imidazol-2-yl)-1-pyrrolidinyl)carbonyl)-2-methylpropyl)carbamate], the pEC50 is 7.00 to 9.00. Consider `COC(=O)N[C@@H](C(=O)N1CCC[C@H]1c1ncc(-c2ccc(-c3ccc(-c4cnc([C@@H]5CCCN5C(=O)C[C@@H]5CCCN5C(=O)OC(C)(C)C)[nH]4)cc3)cc2)[nH]1)c1ccccc1` [Example 84-18, tert-butyl (2S)-2-(2-((2S)-2-(5-(4′-(2-((2S)-1-((2R)-2-((methoxycarbonyl)amino)-2-phenylacetyl)-2-pyrrolidinyl)-1H-imidazol-5-yl)-4-biphenylyl)-1H-imidazol-2-yl)-1-pyrrolidinyl)-2-oxoethyl)-1-pyrrolidinecarboxylate], for which the pEC50 was 7.00 to 9.00. Turning to `O=C([C@H]1CCCO1)N1CCC[C@H]1c1ncc(-c2ccc(-c3ccc(-c4cnc([C@@H]5CCCN5C(=O)[C@@H](c5ccccc5)N5CCCCC5)[nH]4)cc3)cc2)[nH]1` [Example 28-2, 1-((1R)-2-oxo-1-phenyl-2-((2S)-2-(5-(4′-(2-((2S)-1-((2R)-tetrahydro-2-furanylcarbonyl)-2-pyrrolidinyl)-1H-imidazol-5-yl)-4-biphenylyl)-1H-imidazol-2-yl)-1-pyrrolidinyl)ethyl)piperidine], the pEC50 is 9.00 to 12.00. For the compound `COC(=O)N[C@@H](C(=O)N1CCC[C@H]1c1ncc(-c2ccc(-c3ccc(-c4cnc([C@@H]5CCCN5C(=O)[C@H](NC(=O)OC)c5ccccc5)[nH]4)nc3)cc2)[nH]1)c1ccccc1` [Example 147, methyl ((1R)-2-((2S)-2-(5-(5-(4-(2-((2S)-1-((2R)-2-((methoxycarbonyl)amino)-2-phenylacetyl)-2-pyrrolidinyl)-1H-imidazol-5-yl)phenyl)-2-pyridinyl)-1H-imidazol-2-yl)-1-pyrrolidinyl)-2-oxo-1-phenylethyl)carbamate], the pEC50 is 9.00 to 12.00. `COC(=O)N[C@@H](Cc1ccc(OCc2ccccc2)cc1)C(=O)N1CCC[C@H]1c1ncc(-c2ccc(-c3ccc(-c4cnc([C@@H]5CCCN5C(=O)[C@@H](NC(=O)OC)[C@@H](C)OC)[nH]4)cc3)cc2)[nH]1` [cj-105, methyl ((1S,2R)-1-(((2S)-2-(5-(4′-(2-((2S)-1-(O-benzyl-N-(methoxycarbonyl)-L-tyrosyl)-2-pyrrolidinyl)-1H-imidazol-5-yl)-4-biphenylyl)-1H-imidazol-2-yl)-1-pyrrolidinyl)carbonyl)-2-methoxypropyl)carbamate]: the pEC50 is 9.00 to 12.00. As for `COC(=O)N[C@@H](C(=O)N[C@@H](C)c1ncc(-c2ccc(-c3ccc(-c4cnc([C@H](C)NC(=O)[C@H](NC(=O)OC)c5ccccc5)[nH]4)cn3)nc2)[nH]1)c1ccccc1` [Example 153c-7, dimethyl (2,2′-bipyridine-5,5′-diylbis(1H-imidazole-5,2-diyl(1S)-1,1-ethanediylimino((1R)-2-oxo-1-phenyl-2,1-ethanediyl)))biscarbamate], the pEC50 is 7.00 to 9.00. `O=CN[C@@H](C(=O)N1CCC[C@H]1c1ncc(-c2ccc(-c3ccc(-c4cnc([C@@H]5CCCN5C(=O)[C@H](NC=O)c5ccccc5)[nH]4)cc3)cc2)[nH]1)c1ccccc1` [Example 23, N,N′-(4,4′-biphenyldiylbis(1H-imidazole-5,2-diyl(2S)-2,1-pyrrolidinediyl((1R)-2-oxo-1-phenyl-2,1-ethanediyl)))diformamide]: the pEC50 is 9.00 to 12.00. For `COC(=O)N[C@@H](C)C(=O)N1CCC[C@H]1c1ncc(-c2ccc(-c3ccc(-c4cnc([C@@H]5CCCN5C(=O)[C@H](Cc5cncn5C)NC(=O)OC)[nH]4)cc3)cc2)[nH]1` [cj-45, methyl ((1S)-2-((2S)-2-(5-(4′-(2-((2S)-1-(N-(methoxycarbonyl)-L-alanyl)-2-pyrrolidinyl)-1H-imidazol-5-yl)-4-biphenylyl)-1H-imidazol-2-yl)-1-pyrrolidinyl)-1-((1-methyl-1H-imidazol-5-yl)methyl)-2-oxoethyl)carbamate], the pEC50 was 9.00 to 12.00. The same measure, in the same setting: under `COC(=O)N[C@@H](C(=O)N1CCC[C@H]1c1ncc(-c2cnc(-c3ccc(-c4[nH]c([C@@H]5CCCN5C(=O)[C@H](NC(=O)OC)c5ccccc5)nc4C(F)(F)F)cc3)nc2)[nH]1)c1ccccc1` [Example J46, methyl ((1R)-2-((2S)-2-(5-(4-(5-(2-((2S)-1-((2R)-2-((methoxycarbonyl)amino)-2-phenylacetyl)-2-pyrrolidinyl)-1H-imidazol-5-yl)-2-pyrimidinyl)phenyl)-4-(trifluoromethyl)-1H-imidazol-2-yl)-1-pyrrolidinyl)-2-oxo-1-phenylethyl)carbamate] stands 9.00 to 12.00; under `COC(=O)N[C@H](C(=O)N1CCC[C@H]1c1ncc(-c2ccc(-c3ccc(-c4cnc([C@@H]5CCCN5C(=O)[C@@H](NC(=O)OC)[C@@H](C)O)[nH]4)cc3)cc2)[nH]1)[C@@H](C)O` [Example M15, methyl ((1S,2R)-2-hydroxy-1-(((2S)-2-(5-(4′-(2-((2S)-1-((2S,3R)-3-hydroxy-2-((methoxycarbonyl)amino)butanoyl)-2-pyrrolidinyl)-1H-imidazol-5-yl)-4-biphenylyl)-1H-imidazol-2-yl)-1-pyrrolidinyl)carbonyl)propyl)carbamate], 6.00 to 7.00; under `CCN(CC)[C@@H](C(=O)N1CCC[C@H]1c1ncc(-c2ccc(-c3ccc(-c4cnc([C@@H]5CCCN5C(=O)[C@H](C)O)[nH]4)cc3)cc2)[nH]1)c1ccccc1` [Example M40, (2S)-1-((2S)-2-(5-(4′-(2-((2S)-1-((2R)-2-(diethylamino)-2-phenylacetyl)-2-pyrrolidinyl)-1H-imidazol-5-yl)-4-biphenylyl)-1H-imidazol-2-yl)-1-pyrrolidinyl)-1-oxo-2-propanol], 7.00 to 9.00.

For the compound `COC(=O)N[C@H](C(=O)N1C[C@@H](O)C[C@H]1c1ncc(-c2ccc(-c3ccc(-c4cnc([C@@H]5C[C@H](O)CN5C(=O)[C@@H](NC(=O)OC)C(C)C)[nH]4)cc3)cc2)[nH]1)C(C)C` [JG-9, methyl ((1S)-1-(((2S,4S)-4-hydroxy-2-(5-(4′-(2-((2S,4S)-4-hydroxy-1-((2S)-2-((methoxycarbonyl)amino)-3-methylbutanoyl)-2-pyrrolidinyl)-1H-imidazol-5-yl)-4-biphenylyl)-1H-imidazol-2-yl)-1-pyrrolidinyl)carbonyl)-2-methylpropyl)carbamate], the pEC50 is 9.00 to 12.00. The same measure, in the same setting: under `CC(=O)OC(C(=O)N1CCC[C@H]1c1ncc(-c2ccc(-c3ccc(-c4cnc([C@@H]5CCCN5C(=O)[C@@H](c5ccccc5)N5CCCCC5)[nH]4)cc3)cc2)[nH]1)c1ccccc1` (stereo in doubt) [Example 107-1, (1S)-2-oxo-1-phenyl-2-((2S)-2-(5-(4′-(2-((2S)-1-((2R)-2-phenyl-2-(1-piperidinyl)acetyl)-2-pyrrolidinyl)-1H-imidazol-5-yl)-4-biphenylyl)-1H-imidazol-2-yl)-1-pyrrolidinyl) ethyl acetate] stands 9.00 to 12.00.

`COC(=O)N[C@@H](Cc1ccccn1)C(=O)N1CCC[C@H]1c1ncc(-c2ccc(-c3ccc(-c4cnc([C@@H]5CCCN5C(=O)[C@@H](NC(=O)OC)[C@@H](C)OC)[nH]4)cc3)cc2)[nH]1` [cj-67]: the pEC50 is 9.00 to 12.00.
